Here are results for five compounds from patent publication US20070066628A1 (Wyeth, priority 2005, published 2007).

Where “and” joins values, the source holds several entries; their conditions need not be identical. Equal entries are not always repeated.

Assay [1] has as its system rat uterine decidualization. Nature of the assay: Rat decidualization assay. Particulars: s.c.; for Estimated EC50 for uterine weight (decidual response): ovariectomized female Sprague-Dawley rats, once daily for seven days, individual studies; for Estimated average EC50 for uterine weight (decidual response): ovariectomized rats, average of dose-response curves.
Description: (2) Rat Decidualization Assay
(a) Objective: This procedure is used to evaluate the effect of progestins and antiprogestins on rat uterine decidualization and compares the relative potencies of various test compounds.
(b) Methods • A. Reagents • Test compounds are dissolved in 100% ethanol and mixed with corn oil (vehicle). Stock solutions of the test compounds in oil (the Mazola™ oil) are then prepared by heating (˜80° C.) the mixture to evaporate ethanol. Test compounds are subsequently diluted with 100% corn oil or 10% ethanol in corn oil prior to the treatment of animals. […] Ovariectomy is performed at least 10 days prior to treatment to reduce circulating sex steroids. Animals are housed under 12 hours light/dark cycle and given standard rat chow and water ad libitum. • C. […] Test compounds in 0.2 mL vehicle are administered by subcutaneous injection in the nape of the neck or by gavage using 0.5 mL. The animals are treated once daily for seven days. […] In all studies, a control group receiving vehicle is included. Determination of dose-response curves is carried out using doses with half log increases (e.g. 0.1, 0.3, 1.0, 3.0 mg/kg). • E. Decidual Induction • Approximately 24 hours after the third injection, decidualization is induced in one of the uterine horns by scratching the antimesometrial luminal epithelium with a blunt 21 G needle. The contralateral horn is not scratched and serves as an unstimulated control. Approximately 24 hours following the final treatment, rats are sacrificed by CO2 asphyxiation and body weight measured. Uteri are removed and trimmed of fat. […] The Huber M-estimator is used to down weight the outlying transformed observations for both dose-response curve fitting and one-way analysis of variance. JMP software (SAS Institute, Inc.) is used for both one-way ANOVA and non-linear dose-response analyses. • G. Reference Compounds:
All progestin reference compounds are run in full dose-response curves and the EC50 for uterine wet weight is calculated.
In assay [2] the target is T1, PR (Homo sapiens, UniProt P06401).
T1 construct: Frozen T47D cells were thawed in a 37° C. water bath and diluted to 280,000 cells/mL in culture medium; endogenous in cells; host or cells: T47D cells
T1 sequence (P06401 1-933): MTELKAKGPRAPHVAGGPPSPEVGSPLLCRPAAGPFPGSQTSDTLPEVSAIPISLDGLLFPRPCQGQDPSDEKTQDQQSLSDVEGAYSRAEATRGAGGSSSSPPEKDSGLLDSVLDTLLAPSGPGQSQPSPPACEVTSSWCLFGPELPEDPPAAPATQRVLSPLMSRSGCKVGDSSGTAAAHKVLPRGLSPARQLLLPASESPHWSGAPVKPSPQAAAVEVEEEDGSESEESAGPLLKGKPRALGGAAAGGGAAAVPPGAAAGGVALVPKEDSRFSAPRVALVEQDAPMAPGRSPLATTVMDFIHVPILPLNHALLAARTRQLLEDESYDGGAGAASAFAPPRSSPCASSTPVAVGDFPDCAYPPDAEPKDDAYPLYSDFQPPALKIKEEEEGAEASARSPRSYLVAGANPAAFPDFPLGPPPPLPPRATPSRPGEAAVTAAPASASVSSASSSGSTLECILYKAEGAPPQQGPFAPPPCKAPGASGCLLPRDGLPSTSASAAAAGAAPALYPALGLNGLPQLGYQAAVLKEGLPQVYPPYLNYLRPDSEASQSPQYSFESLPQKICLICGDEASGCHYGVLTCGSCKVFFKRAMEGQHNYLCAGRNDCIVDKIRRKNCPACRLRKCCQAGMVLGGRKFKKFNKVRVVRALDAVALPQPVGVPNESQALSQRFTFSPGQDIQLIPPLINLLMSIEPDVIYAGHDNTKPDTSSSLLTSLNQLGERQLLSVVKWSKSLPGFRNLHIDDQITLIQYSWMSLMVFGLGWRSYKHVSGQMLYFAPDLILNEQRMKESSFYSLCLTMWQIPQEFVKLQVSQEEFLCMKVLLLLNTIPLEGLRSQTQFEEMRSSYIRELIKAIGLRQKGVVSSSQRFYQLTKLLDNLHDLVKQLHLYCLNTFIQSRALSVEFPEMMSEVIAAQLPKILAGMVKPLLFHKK
Nature of the assay: T47D cell alkaline phosphatase assay. The format is cell-based. Particulars: T47D cells, agonist mode; read-out: Alk. Phos. EC50. The method, then: (4) T47D Cell Alkaline Phosphatase Assay
(a) Purpose: To identify progestins or antiprogestins by determining a compound's effect on alkaline phosphatase activity in T47D cells.
(b) Methods: • A. Reagents • (i) Culture medium: DMEM:F12 (1:1) (GIBCO, BRL) supplemented with 5% (v/v) charcoal stripped fetal bovine serum (not heat-inactivated), 100 U/mL penicillin, […] streptomycin, and 2 mM GlutaMax (GIBCO, BRL). • (ii) Alkaline Phosphatase Assay Buffer • I. 0.1 M Tris-HCl, pH 9.8, containing 0.2% the Triton™ X-100 reagent • II. 0.1 M Tris-HCl, pH 9.8 containing 4 mM p-nitrophenyl phosphate (Sigma). • B. Cell Culture and Treatment • Frozen T47D cells were thawed in a 37° C. water bath and diluted to 280,000 cells/mL in culture medium. To each well in a 96-well plate (Falcon, Becton Dickinson Labware), 180 μL of diluted cell suspension was added. Twenty μL of reference or test compounds diluted in the culture medium was then added to each well. […] The cells were incubated at 37° C. in a 5% CO2/humidified atmosphere for 24 hours. • Note: For high throughput screening, one concentration of each compound was tested at 0.3 mg/mL. […]
Square root-transformed data were used for analysis of variance and nonlinear dose response curve fitting for both agonist and antagonist modes. […] EC50 or IC50 values were calculated from the retransformed values. […]

As for `CC(=O)O[C@]1(C(C)=O)CC[C@H]2[C@@H]3C[C@H](C)C4=CC(=O)CC[C@]4(C)[C@H]3CC[C@@]21C` [MPA, medroxyprogesterone acetate], the “Estimated EC50 for uterine weight (decidual response)” value (“Estimated EC50 for uterine weight” below) in assay [1] was 0.42 mg/kg, s.c. and 0.39 mg/kg, s.c. (2×).
One may read the EC50 as the midpoint of the concentration-response curve. For `Cn1c(C#N)ccc1-c1ccc2c(c1)C(C)(C)CC2O` (stereo not shown) [Example 3, 5-(1-hydroxy-3,3-dimethyl-2,3-dihydro-1H-inden-5-yl)-1-methyl-1H-pyrrole-2-carbonitrile], the EC50 in assay [2] is 18.6 nM.
Turning to `C#C[C@]1(O)CC[C@H]2[C@@H]3CCC4=CC(=O)CC[C@@H]4[C@H]3CC[C@@]21CC` [Levonorgestrel], in assay [1], the “Estimated EC50 for uterine weight” value is 0.08 mg/kg, s.c. and 0.12 mg/kg, s.c. and 0.09 mg/kg, s.c. (2×); the “Estimated average EC50 for uterine weight (decidual response)” value (“Estimated average EC50” for short) is given as 0.10 mg/kg, s.c.
Take `C#C[C@]1(O)CC[C@H]2[C@@H]3CCC4=CC(=O)CC[C@@H]4[C@H]3C(=C)C[C@@]21CC` [3-Ketodesogestrel]: the “Estimated average EC50” value in assay [1] was 0.10 mg/kg, s.c.
With `CC(=O)[C@H]1CC[C@H]2[C@@H]3CCC4=CC(=O)CC[C@]4(C)[C@H]3CC[C@]12C` [Progesterone], in assay [1], the “Estimated EC50 for uterine weight” value is given as 5.50 mg/kg, s.c and the “Estimated average EC50” value is on record as 5.62 mg/kg, s.c.
